The experiment concerns the target T1, Dimer of Gag-Pol polyprotein [489-587] (Human immunodeficiency virus 1, UniProt P12497).
T1 construct: 489-587
The experiment in a line: Protease Inhibition Assay. Conditions: pH 4.7; 37 °C. As for the experimental part: For determination of IC50 values, HIV-1 protease was added to assay buffer containing inhibitor and the substrate (H-His-Lys-Ala-Arg-Val-Leu- (p-NO2) Phe-Glu-Ala-norleucine-Ser-NH2). The Leu- (p-NO2) Phe bond of the substrate was cleaved by the enzyme, and the substrate and products were separated by reversed-phase HPLC. Absorbance was measured at 220 nm, peak areas were determined, and percentage conversion to product was calculated.

Each structure is given as a SMILES string.

The IC50 is the concentration that inhibits the measured activity by half. A higher IC50 goes with weaker potency in that assay. `O=c1oc(-c2ccccc2)cc(O)c1C(Sc1ccccc1)C1CCCCC1` (racemic) [(+/-)-3-[Cyclohexyl(phenylthio)methyl]-4-hydroxy-phenyl-2H-pyran-2-one] returned an IC50 of 2440 nM.

The compound `O=c1oc(-c2ccccc2)cc(O)c1C(CC1CCCC1)SC1CCCCC1` (racemic) [3-[1-(cyclohexylsulfanyl)-2-cyclopentylethyl]-4-hydroxy-6-phenyl-2H-pyran-2-one] displayed an IC50 of 541 nM.

`O=c1oc(-c2ccccc2)cc(O)c1C(SCc1ccccc1)c1ccccc1` (racemic) [3-[(benzylsulfanyl)(phenyl)methyl]-4-hydroxy-6-phenyl-2H-pyran-2-one] displayed an IC50 of 480 nM.

As for `O=c1oc(-c2ccccc2)cc(O)c1C(CC1CC1)SCc1ccccc1` (racemic) [3-[1-(benzylsulfanyl)-2-cyclopropylethyl]-4-hydroxy-6-phenyl-2H-pyran-2-one], the midpoint of inhibition, the IC50, lay at 84 nM.

`O=c1oc(-c2ccccc2)cc(O)c1C(Sc1ccccc1)c1ccccc1` (racemic) [(+/-)-4-Hydroxy.6-phenyl-3-[phenyl(phenylthio)methyl]-2H-pyran-2-one] returned an IC50 of 780 nM.

As for `O=c1oc(-c2ccccc2)cc(O)c1CSc1ccccc1` [4-hydroxy-6-phenyl-3-[(phenylsulfanyl)methyl]-2H-pyran-2-one], the IC50 was 84300 nM.

`O=c1oc(-c2ccccc2)cc(O)c1C(SC1CCCC1)C1CCCC1` (racemic) [3-[cyclopentyl(cyclopentylsulfanyl)methyl]-4-hydroxy-6-phenyl-2H-pyran-2-one]: half-maximal inhibition (IC50) was put at 225 nM.

`O=c1oc(-c2ccccc2)cc(O)c1C(SC1CCCCC1)c1ccccc1` (stereo not drawn) [3-[(cyclohexylsulfanyl)(phenyl)methyl]-4-hydroxy-6-phenyl-2H-pyran-2-one] came in with an IC50 of 480 nM.

`O=c1oc(-c2ccccc2)cc(O)c1C(Sc1ccc2ccccc2c1)c1ccccc1` (racemic) [4-hydroxy-3-[(naphthalen-2-ylsulfanyl)(phenyl)methyl]-6-phenyl-2H-pyran-2-one] came in with an IC50 of 2450 nM.

Regarding `O=c1oc(-c2ccccc2)cc(O)c1C(CC1CC1)SC1CCCC1` (racemic) [3-[1-(cyclopentylsulfanyl)-2-cyclopropylethyl]-4-hydroxy-6-phenyl-2H-pyran-2-one], 69 nM corresponded to half-maximal inhibition (IC50).

Regarding `O=c1oc(-c2ccccc2)cc(O)c1C(Sc1ccccc1)c1ccc2ccccc2c1` (racemic) [4-hydroxy-3-[naphthalen-2-yl(phenylsulfanyl)methyl]-6-phenyl-2H-pyran-2-one], it took 7820 nM to reach half-maximal inhibition (IC50).

Take `O=c1oc(-c2ccccc2)cc(O)c1C(CC1CC1)SC1CCCCC1` (racemic) [3-[1-(cyclohexylsulfanyl)-2-cyclopropylethyl]-4-hydroxy-6-phenyl-2H-pyran-2-one]: the IC50 amounted to 147 nM.

One may read the Ki as the dissociation constant of the complex between target and ligand, obtained from inhibition or displacement. Turning to `CC(C)CC(SC1CCCC1)c1c(O)cc(-c2ccccc2)oc1=O` (racemic) [(+/-)-3-[1-(Cyclopentylthio)-3-methylbutyl]-4-hydroxy-6-phenyl-2H-pyran-2-one], the affinity corresponds to a Ki of 33 nM.

(Values after BindingDB's records for doi:10.1021/jm00006a007 (Parke-Davis Pharmaceutical Research, 1995).)
